Patent US5444151A, “Platelet derived growth factor antagonists” (Ludwig Institute for Cancer Research, priority 1992, dated 1995)
“Also recorded” adds a separate entry of the source. Numbered stars: 1 amine (or outer) side, 2 acyl side, 3 side chain; on linkers, the order of the positions; unused ones are H or OH. Square brackets hold non-standard residues; d marks the D form. Peptide text beside a SMILES is read from it. X1 = CSc1ccc(-c2[nH]c3ccccc3c2C[C@H](N[*:1])C(=O)[*:2])cc1

Assays:
PDGF-α receptor = target: T1, PDGF-α receptor (Homo sapiens, UniProt P16234); assay: Competition with 125I-PDGF-AA for binding to AG1518 fibroblasts; conditions: for Receptor competing activity, PDGF-AA binding (in words): AG1518 cells
T1 construct: cultures of human foreskin fibroblast cell line AG1518; endogenous in cells; host or cells: AG1518 human foreskin fibroblasts
T1 sequence (P16234 24-1089): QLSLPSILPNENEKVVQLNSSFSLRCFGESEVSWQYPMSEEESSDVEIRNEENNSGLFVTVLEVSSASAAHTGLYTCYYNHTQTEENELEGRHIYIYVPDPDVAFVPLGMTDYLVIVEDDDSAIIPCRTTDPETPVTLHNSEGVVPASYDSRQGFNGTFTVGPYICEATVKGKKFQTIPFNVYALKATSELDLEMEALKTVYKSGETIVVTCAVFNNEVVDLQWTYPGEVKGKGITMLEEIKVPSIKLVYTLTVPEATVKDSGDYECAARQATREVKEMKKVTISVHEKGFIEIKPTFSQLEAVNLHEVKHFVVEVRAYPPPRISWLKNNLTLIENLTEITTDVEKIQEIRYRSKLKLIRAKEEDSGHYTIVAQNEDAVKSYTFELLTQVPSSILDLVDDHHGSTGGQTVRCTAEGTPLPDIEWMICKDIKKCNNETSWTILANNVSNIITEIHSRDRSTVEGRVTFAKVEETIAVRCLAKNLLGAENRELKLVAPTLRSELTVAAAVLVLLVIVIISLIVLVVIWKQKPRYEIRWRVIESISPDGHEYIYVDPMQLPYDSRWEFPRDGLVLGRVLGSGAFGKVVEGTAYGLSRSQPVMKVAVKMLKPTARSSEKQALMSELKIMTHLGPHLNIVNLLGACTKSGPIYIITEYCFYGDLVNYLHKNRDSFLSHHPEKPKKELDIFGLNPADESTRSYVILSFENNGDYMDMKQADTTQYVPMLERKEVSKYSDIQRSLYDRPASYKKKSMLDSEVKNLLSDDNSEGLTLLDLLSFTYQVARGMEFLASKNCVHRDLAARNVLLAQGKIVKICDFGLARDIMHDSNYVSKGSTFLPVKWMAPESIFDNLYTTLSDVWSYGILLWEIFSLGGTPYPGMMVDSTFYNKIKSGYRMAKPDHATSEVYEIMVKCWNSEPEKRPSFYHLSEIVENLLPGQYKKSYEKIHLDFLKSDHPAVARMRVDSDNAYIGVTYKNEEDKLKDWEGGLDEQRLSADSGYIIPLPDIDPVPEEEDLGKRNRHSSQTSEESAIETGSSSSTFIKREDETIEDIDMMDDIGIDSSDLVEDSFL
Method: (§1) In order to test for receptor binding, cultures of human foreskin fibroblast cell line AG1518 (obtained from the Human Mutant Cell Repository), were grown to confluence in Ham's F-12 medium containing 10% newborn calf serum. Those cells which were to be used in analysis of PDGF-β receptor binding were preincubated for 60 minutes at 37° C. in 0.5 ml/well of Ham's F-12 medium, supplemented with 1 mg/ml of bovine serum albumin (BSA), and 50 ng/ml of PDGF-AA. This combination down regulates PDGF-α receptor, as per Claesson-Welsh et al., J. Biol. Chem. 264: 1742-1747 (1989).
(§2) Cells were prepared for receptor binding analyses by washing with ice cold binding buffer (phosphate buffered saline with 0.9 mM CaCl2, 0.49 mM MgSO4 and 1 mg/ml BSA). The cells were then incubated on ice for 90 minutes with different concentrations (0-100 ug/ml) of synthetic peptides (listed in Table 1, infra), in 0.5 ml of binding buffer per well. […] The labelled ligand was added and then incubated for 60 minutes at 0° C. after which the cells were washed five times with ice cold binding buffer. The washed cells were then lysed for 60 minutes at room temperature in a lysis buffer (1% Triton X-100, 10% glycerol, 20 mM Tris-HCl, pH 7.5). Solubilized radioactivity was determined in a gamma counter. Competing activities of synthetic peptides were compared to standard curves, using unlabelled ligand.

[1] = tested on: human foreskin fibroblasts; assay: Ligand stimulated [3H]thymidine incorporation; assay type: cell-based; conditions: for Effect on ligand stimulated [3H]thymidine incorporation (in words): PDGF-AA, PDGF-BB or EGF stimulation; for [3H]thymidine incorporation, Control / [3H]thymidine incorporation, EGF / [3H]thymidine incorporation, PDGF-AA / [3H]thymidine incorporation, PDGF-BB: peptide present, mean of duplicates; for [3H]thymidine incorporation, EGF: stimulated with EGF; for [3H]thymidine incorporation, PDGF-AA: stimulated with PDGF-AA; for [3H]thymidine incorporation, PDGF-BB: stimulated with PDGF-BB
Excerpt: The possible role of peptide 16T as an antagonist for PDGF activity in vivo was investigated. Following the methodology of Betsholtz et al., J. Cell Physiol 118: 203-210 (1984), the disclosure of which is incorporated by reference, [^3 H] thymidine incorporation by human fibroblasts in the presence of various peptides was studied.

PDGF receptors = assay: PDGF-BB induced receptor dimerization and autophosphorylation in intact cells; assay type: cell-based, human; conditions: PDGF-BB 300 ng/ml, intact fibroblasts
Method: (§3) Confluent human foreskin fibroblast cells were used (25 cm^2 dishes of cultures). The cells were washed twice with binding buffer, as described supra, with 1 mg/ml BSA added thereto. This was followed by 90 minutes of incubation with one of synthetic peptides 16, […], 20 and […] on ice. […] A dimerization assay was then carried out, basically following Eriksson et al., Growth Factors 6: 1-14 (1992). Essentially, receptors were cross linked for 20 minutes at room temperature in 1 mM BS^3 (Bis(sulfosuccinimidyl)suberate) in lysis buffer (0.5% Triton X-100, 0.5% deoxycholate, […], pH 7.4, 150 mM NaCl, 10 mM EDTA, 1 mM PMSF (phenylmethylsulfonyl fluoride), 1% Trasylol (aprotinin), 100 μM ortovandat, a phosphatase inhibitor). Cross linking was quenched by adding 70 mM methylammonium chloride for 10 minutes. Samples were then subjected to SDS gel electrophoresis in 4% slab gels, followed by electroblotting on to nitrocellulose membranes. The blocked membranes were incubated for two hours with affinity purified phosphotyrosine antibodies (Ek et al., J. Biol. Chem. 259: 1145-11152 (1984)), followed by three washes. Blots were then incubated for 45 minutes with peroxidase conjugated, affinity purified swine antirabbit IgG immunoglobulin. After an additional three washes, complexes were visualized using the ECL developing system.

EGF receptor [2] = target: T2, EGF receptor (Homo sapiens, UniProt P00533); assay: Competition with 125I-EGF for binding to AG1518 fibroblasts
T2 construct: cultures of human foreskin fibroblast cell line AG1518; endogenous in cells; host or cells: human foreskin fibroblasts (AG1518)
T2 sequence (P00533 25-1210): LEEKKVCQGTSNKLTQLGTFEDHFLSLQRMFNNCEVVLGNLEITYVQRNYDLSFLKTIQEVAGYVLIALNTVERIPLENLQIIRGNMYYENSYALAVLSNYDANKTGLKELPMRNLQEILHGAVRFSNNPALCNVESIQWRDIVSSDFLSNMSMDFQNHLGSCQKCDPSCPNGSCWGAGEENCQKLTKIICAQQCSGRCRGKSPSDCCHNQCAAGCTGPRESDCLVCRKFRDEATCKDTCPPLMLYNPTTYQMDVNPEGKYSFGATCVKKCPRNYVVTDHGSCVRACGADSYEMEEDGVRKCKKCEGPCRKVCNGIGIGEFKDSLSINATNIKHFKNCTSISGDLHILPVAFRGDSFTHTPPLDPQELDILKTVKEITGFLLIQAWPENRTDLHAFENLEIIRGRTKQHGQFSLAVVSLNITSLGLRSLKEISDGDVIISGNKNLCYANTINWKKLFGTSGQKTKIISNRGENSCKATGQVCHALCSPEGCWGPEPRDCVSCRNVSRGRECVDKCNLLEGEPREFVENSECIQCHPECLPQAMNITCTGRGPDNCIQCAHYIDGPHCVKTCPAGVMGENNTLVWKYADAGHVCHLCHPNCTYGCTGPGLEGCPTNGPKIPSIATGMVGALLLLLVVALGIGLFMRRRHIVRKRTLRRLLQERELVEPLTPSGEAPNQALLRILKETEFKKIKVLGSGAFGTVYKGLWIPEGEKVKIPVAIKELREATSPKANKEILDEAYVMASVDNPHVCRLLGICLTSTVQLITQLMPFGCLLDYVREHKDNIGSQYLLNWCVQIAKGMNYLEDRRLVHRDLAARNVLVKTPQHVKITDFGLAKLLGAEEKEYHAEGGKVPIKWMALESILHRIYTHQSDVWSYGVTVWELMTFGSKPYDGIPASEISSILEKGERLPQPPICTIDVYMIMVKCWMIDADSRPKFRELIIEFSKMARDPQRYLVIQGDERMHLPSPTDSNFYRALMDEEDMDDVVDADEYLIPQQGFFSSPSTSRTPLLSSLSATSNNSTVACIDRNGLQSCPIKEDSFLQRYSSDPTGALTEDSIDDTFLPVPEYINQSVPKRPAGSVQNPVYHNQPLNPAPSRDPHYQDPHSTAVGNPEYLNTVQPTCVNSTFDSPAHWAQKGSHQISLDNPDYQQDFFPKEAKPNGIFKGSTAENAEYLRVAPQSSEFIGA
Method: as §1, §2

EGF receptor [3] = target: T2, EGF receptor; assay: EGF induced receptor dimerization and autophosphorylation in intact cells; assay type: cell-based; conditions: EGF 300 ng/ml, intact fibroblasts
Method: as §3

PDGF-β receptor [4] = target: T3, PDGF-β receptor (Homo sapiens, UniProt P09619); assay: Competition with 125I-PDGF-BB for binding to AG1518 fibroblasts (α receptor down regulated by PDGF-AA preincubation); conditions: AG1518 cells, competing activity
T3 construct: cultures of human foreskin fibroblast cell line AG1518; endogenous in cells; host or cells: AG1518 human foreskin fibroblasts (Human Mutant Cell Repository)
T3 sequence (P09619 33-1106): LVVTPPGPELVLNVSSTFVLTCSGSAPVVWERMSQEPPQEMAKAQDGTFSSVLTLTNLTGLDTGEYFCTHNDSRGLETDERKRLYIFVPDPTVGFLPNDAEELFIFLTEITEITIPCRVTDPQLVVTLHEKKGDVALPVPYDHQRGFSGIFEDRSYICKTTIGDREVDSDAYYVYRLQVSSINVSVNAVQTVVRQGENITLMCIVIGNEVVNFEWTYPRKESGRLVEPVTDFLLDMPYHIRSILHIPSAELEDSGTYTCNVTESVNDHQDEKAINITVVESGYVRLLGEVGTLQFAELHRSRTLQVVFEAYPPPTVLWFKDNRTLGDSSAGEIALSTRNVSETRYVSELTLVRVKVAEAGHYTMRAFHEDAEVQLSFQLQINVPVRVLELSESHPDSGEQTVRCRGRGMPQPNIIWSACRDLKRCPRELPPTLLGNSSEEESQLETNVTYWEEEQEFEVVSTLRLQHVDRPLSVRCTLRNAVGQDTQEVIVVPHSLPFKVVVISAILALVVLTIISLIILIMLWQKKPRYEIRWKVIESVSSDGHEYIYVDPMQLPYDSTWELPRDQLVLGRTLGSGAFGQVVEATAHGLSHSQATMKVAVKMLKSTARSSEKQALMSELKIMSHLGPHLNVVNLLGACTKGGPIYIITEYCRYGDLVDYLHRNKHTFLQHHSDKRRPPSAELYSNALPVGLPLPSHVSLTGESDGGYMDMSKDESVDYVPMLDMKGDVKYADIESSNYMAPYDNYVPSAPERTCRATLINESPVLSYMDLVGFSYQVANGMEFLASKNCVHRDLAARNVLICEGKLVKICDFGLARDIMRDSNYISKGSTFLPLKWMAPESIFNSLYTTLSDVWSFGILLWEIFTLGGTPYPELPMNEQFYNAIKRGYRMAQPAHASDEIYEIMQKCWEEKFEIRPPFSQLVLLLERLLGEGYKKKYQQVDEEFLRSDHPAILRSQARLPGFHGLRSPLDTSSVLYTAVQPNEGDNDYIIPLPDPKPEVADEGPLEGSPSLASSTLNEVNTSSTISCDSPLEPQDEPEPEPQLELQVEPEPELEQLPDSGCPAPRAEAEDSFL
Method: as §1, §2
In Table 2, "+++" means <30 μM; "++" from 30-60 μM; "+" 60-150 μM; and "-", >150 μM.

PDGF-α or β receptors = assay: PDGF receptor internalization and down regulation; assay type: cell-based, human; conditions: four hours at 37° C.; surface receptors estimated with 125I-PDGF-BB
Method: As binding of PDGF to receptors leads to receptor internalization and down regulation, investigations were carried out to determine whether the interaction of PDGF and peptide […] led to the internalization and down regulation of receptors. To test this, confluent cells, as described supra, were washed once with binding buffer at 37° C., followed by incubation with different concentrations of synthetic peptide (0.5 ml of PBS containing 1 mg/ml BSA). Following this, the cells were incubated at 37° C. for four hours, followed by washing with 1 ml of ice cold buffer consisting of 20 mM Na-acetate, 150 mM NaCl, 0.2% BSA adjusted to pH 3.7 with acetic acid. The cells were then incubated for 10 minutes on ice in buffer, followed by two washings with 1 ml binding buffer, at pH 7.4. The number of PDGF receptors on the cell surface was estimated by incubation with ^125 I-PDGF-BB (~50,000cpm) in 0.5 ml binding buffer for 60 minutes on ice, followed by washing, lysis and determination of cell bound radioactivity.

PDGF-β receptor [5] = target: T4, PDGF-β receptor (Sus scrofa, UniProt A0A8W4FFG6); assay: Autophosphorylation and dimerization of partially purified PDGF-β receptor; assay type: biochemical, porcine; conditions: nearly complete for 16T, complete for 16; about 100 ng receptor, 100 ng PDGF-BB, 40 ul
T4 construct: from Triton X-100 solubilized porcine uterus membranes and purified up to the Mono-Q chromatography step; from tissue; host or cells: porcine uterus membranes
T4 sequence (A0A8W4FFG6 32-1102): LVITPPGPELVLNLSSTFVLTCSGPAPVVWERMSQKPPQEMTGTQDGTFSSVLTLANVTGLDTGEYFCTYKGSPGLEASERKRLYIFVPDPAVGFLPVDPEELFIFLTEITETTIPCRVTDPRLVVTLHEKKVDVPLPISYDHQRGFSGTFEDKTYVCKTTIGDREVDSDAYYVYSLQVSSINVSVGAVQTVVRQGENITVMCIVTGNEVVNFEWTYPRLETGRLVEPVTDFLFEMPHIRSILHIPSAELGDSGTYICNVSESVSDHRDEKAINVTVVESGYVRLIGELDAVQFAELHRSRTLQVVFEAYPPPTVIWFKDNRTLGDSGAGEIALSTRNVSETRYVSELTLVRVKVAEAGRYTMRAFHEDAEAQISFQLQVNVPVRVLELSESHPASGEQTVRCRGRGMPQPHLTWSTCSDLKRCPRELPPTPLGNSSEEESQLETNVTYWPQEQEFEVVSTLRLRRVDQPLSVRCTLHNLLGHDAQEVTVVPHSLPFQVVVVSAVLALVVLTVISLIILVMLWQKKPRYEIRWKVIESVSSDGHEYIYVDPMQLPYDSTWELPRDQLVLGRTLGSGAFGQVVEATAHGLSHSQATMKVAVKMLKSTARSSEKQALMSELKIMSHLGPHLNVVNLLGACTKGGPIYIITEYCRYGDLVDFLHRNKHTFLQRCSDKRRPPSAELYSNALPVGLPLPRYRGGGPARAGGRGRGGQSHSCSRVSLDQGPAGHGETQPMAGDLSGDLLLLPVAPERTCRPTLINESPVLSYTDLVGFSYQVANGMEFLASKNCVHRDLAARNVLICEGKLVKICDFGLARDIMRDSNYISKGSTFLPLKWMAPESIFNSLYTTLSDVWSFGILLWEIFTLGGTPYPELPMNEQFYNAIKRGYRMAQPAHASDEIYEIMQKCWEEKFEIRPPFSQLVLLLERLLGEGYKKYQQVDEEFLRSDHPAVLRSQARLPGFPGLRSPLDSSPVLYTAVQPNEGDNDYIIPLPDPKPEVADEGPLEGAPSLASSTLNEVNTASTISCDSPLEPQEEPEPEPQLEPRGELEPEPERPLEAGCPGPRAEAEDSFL
Method: A preparation of PDGF-β receptor, from Triton X-100 solubilized porcine uterus membranes and purified up to the Mono-Q chromatography step of Ronnstrand et al., J. Biol. Chem. 262: 2929-2932 (1987), was made, and the autophosphorylation assay described therein was carried out.
Approximately 100 ng of the receptor was incubated for 5 minutes at 0° C. with peptide 16T or peptide 20, at different concentrations. […] Four ul of 150 μM [^32 P]ATP (containing 5×10^6 cpm of radioactivity) was added, followed by an additional 10 minutes of incubation at 0° C. Incorporation of radioactivity was terminated by adding 5 μl of 15 mM unlabelled ATP and 5 μl of 40 mM phenylphosphate. Samples were cross linked by incubating with 0.5 mM DSS (12.5 mM, in dimethyl sulfoxide) for 30 minutes at room temperature. The cross linking reaction was blocked by adding 50 mM methylammonium chloride, 20 mM Hepes, pH 7.4.

[6] = tested on: human foreskin fibroblast cells; assay: Inhibition of 125I-ligand internalization and degradation (TCA non-precipitatable radioactivity); assay type: cell-based; conditions: four hours at 37° C.
Method: To do this, confluent human foreskin fibroblast cells in 12 well dishes were washed once with 1.0 ml of Ham's F-12 medium, supplemented with 1 mg/ml BSA. As described supra, those cells to be tested later for ^125 I-PDGF-BB degradation were preincubated with PDGF-AA to down regulate α receptors. […] The mixtures were incubated for four hours at 37° C., the incubation medium was removed, and then precipitated with trichloroacetic acid at 10% final concentration. The amount of trichloroacetic acid non-precipitatable radioactivity in cell culture medium was taken as an estimate of ligand degradation--i.e., it represents ligand that had been internalized, degraded and released into the medium in the form of free ^125 I, ^[…] or low molecular weight fragments. This parameter was defined after four hours of incubation at 37° C.

Effect on EGF induced autophosphorylation and dimerization (in words) (EGF receptor [3])	50% competition for receptor binding (PDGF-α receptor; α receptor)	Down regulation of PDGF receptors (in words) (PDGF-α or β receptors)	Amount of peptide giving complete inhibition of dimerization and autophosphorylation (PDGF-β receptor [5])	Structure (SMILES)	Receptor competing activity, PDGF-AA binding (in words) (PDGF-α receptor)	Effect on ligand stimulated [3H]thymidine incorporation (in words) [1]	[3H]thymidine incorporation, Control ([1]; no ligand)	[3H]thymidine incorporation, EGF [1]	[3H]thymidine incorporation, PDGF-AA [1]	[3H]thymidine incorporation, PDGF-BB [1]	Effect on PDGF induced autophosphorylation and dimerization (in words) (PDGF receptors)	Competition for binding of 125I-EGF to the EGF receptor (in words) (EGF receptor [2])	Receptor competing activity, PDGF-BB binding (in words) (PDGF-β receptor [4])	Effect on background [3H]thymidine incorporation (in words) ([1]; no ligand)	Inhibition of PDGF induced autophosphorylation and dimerization (PDGF receptors)	Inhibition of 125I-PDGF-AA degradation (in words) [6]	Inhibition of 125I-PDGF-BB degradation (in words) ([6]; α receptors down regulated)
no effect whatsoever	–	–	–	CC[C@H](C)[C@H](NC(=O)[C@H](Cc1ccccc1)NC(=O)[C@H](C)NC(=O)[C@@H](N)CCC(=O)O)C(=O)N[C@@H](CCCCN)C(=O)N[C@@H](Cc1c(-c2ccc(SC)cc2)[nH]c2ccccc12)C(=O)N[C@@H](CC(C)C)C(=O)N[C@H](C(=O)N[C@@H](CCCNC(=N)N)C(=O)N[C@@H](CC(N)=O)C(=O)N[C@@H](CCCCN)C(=O)N[C@H](C(=O)N1CCC[C@H]1C(=O)O)C(C)C)C(C)C [*20T, reference compound]	did not compete for binding	some non specific inhibition activity	456 cpm	515 cpm	489 cpm	836 cpm	no effect whatsoever	none of peptides 16, 16T, 20 and 20T compete	did not compete for binding	–	–	–	–
no effect	Forty-four	did not downregulate	5 µg	CC[C@H](C)[C@H](NC(=O)[C@H](CCC(=O)O)NC(=O)[C@H](Cc1c(-c2ccc(SC)cc2)[nH]c2ccccc12)NC(=O)[C@@H](NC(=O)[C@H](CC(C)C)NC(=O)[C@H](Cc1ccccc1)NC(=O)[C@H](CC(N)=O)NC(=O)[C@H](C)N)C(C)C)C(=O)N[C@H](C(=O)N[C@@H](CCCNC(=N)N)C(=O)N[C@@H](CCCCN)C(=O)N[C@@H](CCCCN)C(=O)N1CCC[C@H]1C(=O)O)C(C)C [*16T, Ala Asn Phe Leu Val Xaa Glu Ile Val Arg Lys Lys Pro] (H-ANFLV[X1]EIVRKKP-OH; N-terminus and C-terminus assumed)	higher activity; also recorded: effective competitor	did inhibit PDGF-AA and PDGF-BB induced mitogenicity, but also EGF induced mitogenicity	46 cpm	119 cpm	90 cpm	102 cpm	–	none of peptides 16, 16T, 20 and 20T compete	effective competitor; also recorded: far more efficient in competing with PDGF for receptor binding	lowered background incorporation of [^3 H] thymidine dramatically	about 55%	most effective	most potent
